These results are taken from US20150342961A1, “USE OF PROSTAGLANDIN E1 (PGE1) AND MISOPROSTOL FOR TREATING CHRONIC MYELOGENOUS/MYELOID LEUKEMIA (CML)” (priority 2014, published 2015).

SMILES strings stand for the structures. Entries after “also recorded” stand apart in the source; their conditions may differ. Structures can show the parent of a compound that is named as a salt.

One data set has as its system CML. Nature of the data set: Screen of drugs simulating Tcf1 and Lef1 elimination, effect on CML. An excerpt: (§1) In view of the Inventor's discovery, the Inventor set out to screen for drugs that would simulate the effect of eliminating Tcf1 and Lef1 for use in treatment of CML. Inventor experimented with the following drugs which are known to at least partly simulate the effect of eliminating Tcf1 and Lef1: Carbimazole, Cinchonine, Gibberellic acid, Hippeastrine hydrobromide, Dimaprit dihydrochloride, Spaglumic acid, and Vigabatrin. […] Inventor further experimented with Trichostatin A and Vorinostat. […] Inventor thereafter turned to prostaglandins for treating CML.

Data set [1] relates to LSCs. Nature of the data set: LSCs from treated primary recipients transplanted into secondary recipients, propagation of CML. The following applies: secondary recipients untreated. Type of data set: in vivo, mouse. As to the method:
The CML model was established in the primary recipients as in FIG. 5. The recipients were then treated with Imatinib, PGE1 or Misoprostol alone, or in combination during days 8-21 post-BMT. The LSCs were isolated from the BM of the primary recipients and transplanted into another set of secondary recipients. The ability of LSCs to propagate CML in the secondary recipients were tracked.
Note that the LSCs were only treated with PGE1 or Misoprostol in the primary recipients for 2 weeks, and none of the secondary recipients were treated.
(§2) CML animals were treated with the solvent dimethyl sulfoxide (DMSO) as a negative control (See FIG. 6).

Another data set concerns CML mouse model. Kind of data set: CML mouse model, survival of primary recipients after BMT. The note with it: for survival rate at about day 35 / time mice survived after bone marrow transplantation (BMT) before survival declined: 2.5 mg/kg daily, days 8-36 post-BMT. Type of data set: in vivo. As to the method: Bone marrow cells (BM) were isolated from donor mice, and HSCs were enriched and delivered the BCR-ABL gene using retroviral transduction. The BM cells were then transplanted into another group of recipient mice (called primary recipients here). The recipients will develop CML because the donor HSCs are transformed by BCR-ABL. On day 8 after BM transplantation (BMT), the primary recipients were treated with DMSO (the solvent to dissolve PGE1 or PGE2), PGE1, PGE2, Imatinib or both PGE1 and Imatinib. The survival of the recipients was monitored.
CML was established as in FIG. 5. During days 8-36 post-bone marrow transplantation (BMT), the recipients were treated daily with 2.5 mg/kg body weight PGE1 or PGE2, or the vehicle DMSO. Statistical significance was determined by log-rank test. Data are pooled results from 2 independent experiments with a total of 10 CML recipients tested under each condition.
CML was established as in FIG. 5. During days 8-80 post-BMT, the recipients were treated daily with Imatinib alone (100 mg/kg body weight, b.i.d.) or in combination with PGE1 (2.5 mg/kg body weight). Statistical significance was determined by log-rank test. Data are pooled results from 2 independent experiments with a total of 9-10 CML recipients tested under each condition.
as §2

The subject of data set [2] is LSCs. Nature of the data set: Screen of drugs simulating Tcf1 and Lef1 elimination, effect on LSCs.
Description: as §1

In the next data set the test system is HSCs.
Description: as §1

Take `CCOC(=O)n1ccn(C)c1=S` [Carbimazole]: the “effect on CML” value with CML was “no effect on CML”.

Regarding `C=C[C@H]1C[N@@]2CC[C@H]1C[C@@H]2[C@@H](O)c1ccnc2ccccc12` [Cinchonine], in the data set with CML, the “effect on CML” value is on record as “no effect on CML”.

Take `CN(C)CCCSC(=N)N` [Dimaprit dihydrochloride]: in the data set on CML, the “effect on CML” value was “no effect on CML”.

As to `C=C1C[C@]23C[C@@]1(O)CC[C@H]2[C@@]12C=C[C@H](O)[C@@](C)(C(=O)O1)[C@H]2[C@@H]3C(=O)O` [Gibberellic acid], the “effect on CML” value in the data set on CML was “no effect on CML”.

As to `CN1CCC2=C[C@H](O)[C@H]3OC(=O)c4cc5c(cc4[C@H]3[C@@H]21)OCO5` [Hippeastrine hydrobromide], the “effect on CML” value in the data set on CML is given as “no effect on CML”.

Turning to `Cc1ccc(NC(=O)c2ccc(CN3CCN(C)CC3)cc2)cc1Nc1nccc(-c2cccnc2)n1` [Imatinib], in the data set on LSCs [1] (LSCs treated in primary recipients days 8-21 post-BMT), the “day after secondary BMT at which secondary recipients died” value was approximately 40 days. Moreover, the “effect of Imatinib or co-therapy on survival of CML recipients” value in the data set on CML mouse model (Imatinib 100 mg/kg b.i.d. alone or with PGE1 2.5 mg/kg, days 8-80 post-BMT) was “substantially extend the survival; also recorded: extended the survival of CML mice”. In addition, the “day after BMT at which all CML mice had died” value in the data set on CML mouse model (Imatinib 100 mg/kg b.i.d., days 8-80 post-BMT) was approximately 62 days.

Consider `CCCCC[C@H](O)/C=C/[C@H]1[C@H](O)CC(=O)[C@@H]1CCCCCCC(=O)O` [PGE1, Prostaglandin E1], for which the “ability of treated LSCs to propagate CML in secondary recipients” value in the data set with LSCs [1] (two-week treatment in primary recipients) is “superior to Imatinib treatment; also recorded: much less efficient in propagating CML”. In addition, in the data set with CML mouse model (CML mice), the “survival rate at about day 35” value was approximately 50% and the “time mice survived after bone marrow transplantation (BMT) before survival declined” value was “approximately 17 days”. The “greater survival rate compared to the PGE2 mice” value in the data set with CML mouse model (CML mice, about day 35) is approximately 400%.

On to `CCCCC[C@H](O)/C=C/[C@H]1[C@H](O)CC(=O)[C@@H]1C/C=C\CCCC(=O)O` [PGE2, Prostaglandin E2], for which, in the data set on CML mouse model (CML mice), the “survival rate at about day 35” value is on record as “about 10%” and the “time mice survived after bone marrow transplantation (BMT) before survival declined” value is “approximately 17 days”.

Consider `CC(/C=C/C(=O)NO)=C\[C@@H](C)C(=O)c1ccc(N(C)C)cc1` [Trichostatin A], for which the “effect on LSCs” value in the data set on LSCs [2] is on record as “strong effect on LSCs”.

Take `C=CC(N)CCC(=O)O` (stereo not drawn) [Vigabatrin]: in the data set on CML, the “effect on CML” value is “no effect on CML”.

Consider `O=C(CCCCCCC(=O)Nc1ccccc1)NO` [Vorinostat], for which the “effect on LSCs” value with LSCs [2] is recorded as “strong effect on LSCs”. The “toxicity to HSCs” value with HSCs is given as “toxic to HSCs”.
